{"source": "patent US9273338B2", "about": "“Chimeric avian-based screening system containing mammalian grafts” (priority 2004, dated 2016)", "key": {"[1]": {"tested_on": "Langerhans cells (LC) in human skin explants cultivated on the CAM", "experiment": "Activation and mobilization of Langerhans cells in human skin grafts on the CAM (CD1a staining)", "format": "in vivo", "method": "Excess fat was manually removed from human skin obtained within 2 hours of surgery. The skin was cut into rectangular/square pieces approximately 7-10 mm on each side and stored on a cold plate at 15° C. in saline. Eggs with an artificial air sac were opened with iris scissors in a sterile hood. The ectodermal surface of the CAM was abraded by touching it briefly with a sterile piece of lens tissue to improve the adherence of the graft. The skin was then gently place on the CAM and stretched out. The eggs were then sealed with scotch tape, and returned to the incubator.\nTwo-three days after grafting the skin, the eggs were re-opened, and the grafts are evaluated visually for viability. Eggs containing skin that has yellowed or that looks obviously infected were discarded. A plastic ring just smaller than the skin was placed on the graft in order to prevent leakage of the test substance away from the skin, using Vaseline to seal it down. Then, a 50 μl drop of the tested substance was placed on the skin, and the egg was re-sealed and incubated for another 6 hours-5 days. At the end of the re-incubation, the skin was removed from the CAM and prepared for paraffin histology. […]\nAll the microscopic 400 μm-fields in triplicate sections from each skin sample were counted with a 40× objective. The average number of cells per field was then determined and averaged for that skin sample. […]"}, "[2]": {"tested_on": "human skin grafted onto the CAM of a fertilized egg", "experiment": "Human skin irritation quantified with the skin-CAM system", "format": "in vivo", "method": "FIGS. 2B and 2C quantitate the change in epidermal thickness of CAM-grafted and organ culture-maintained human skin. Epidermal thickness was measured using digital photos, by tracing the epidermis with a digitizing pad and determining area using the public domain scientific imaging software ImageJ (http://rsb.info.nih.gov/ij/). Size bars represent 0.05 mm\nPunch biopsies of human skin were grafted onto the CAM of a fertilized egg as described in Example 1. The human skin samples were allowed to incubate for 2 days after grafting in order to allow for the skin to incorporate, and then the adhesive tape sealing of the samples was reopened. The detergent sodium dodecylsulfate (SDS) was applied to different skin samples at different concentrations topically using a small plastic ring cut from a pipette tip keep the irritant in place. The skin samples were then resealed and returned to the incubator for an addition three days, whereupon they underwent routine histological and immunochemical analysis using Abs for the proliferation marker PCNA. PCNA^+ cells were counted in several sections, and the length of the epidermis in the section measured. Results are expressed as PCNA^+ cells/mm."}}, "data": [{"molecule": "O=[N+]([O-])c1ccc(F)c([N+](=O)[O-])c1", "note": "[DNFB, dinitrofluorobenzene]", "values": [{"measurement": "CD1a+ LC in the epidermis", "setting": "[1]; overnight (O/N) incubation, compared to untreated skin fixed immediately or O/N acetone/olive oil (solvent) treated skin, FIG. 9", "result": "significant decrease"}]}, {"molecule": "CCCCCCCCCCCCOS(=O)(=O)[O-].[Na+]", "note": "[SDS, sodium dodecylsulfate]", "values": [{"measurement": "epidermal thickness", "setting": "[2]; topical SDS treatment, FIG. 3B", "result": "no significant differences in epidermal thickness"}, {"measurement": "epidermal proliferation (PCNA+ cells/mm)", "setting": "[2]; topical SDS, 1% and 2.5% produce similar results, 3 days after treatment, p<0.05, FIG. 3A", "result": "significantly increases epidermal proliferation"}]}, {"molecule": "LT: lymphotoxin (LT) (protein, UniProt P01374 35-205, looked up) Lymphotoxin-alpha: LPGVGLTPSAAQTARQHPKMHLAHSTLKPAAHLIGDPSKQNSLLWRANTDRAFLQDGFSLSNNSLLVPTSGIYFVYSQVVFSGKAYSPKATSSPLYLAHEVQLFSSQYPFHVPLLSSQKMVYPGLQEPWLHSMYHGAAFQLTQGDQLSTHTDGIPHLVLSPSTVFFGAFAL", "values": [{"measurement": "number of CD1a+ LC in epidermis", "setting": "[1]; LT-treated skin grafts, FIG. 10", "result": "clear decrease"}]}]}
